From patent US11524944B2, “2-phenylpyrimidine-4-carboxamides as AHR inhibitors” (Bayer Aktiengesellschaft, priority 2017, dated 2022) come the findings set out here.

Structures are written as SMILES. Some results are limits rather than exact numbers.

In this experiment the target is T1, Human AhR (Homo sapiens, UniProt P35869).
T1 construct: host or cells: U87 glioblastoma cells, stably transfected with a DRE firefly luciferase reporter and a constitutive renilla reporter
T1 sequence (P35869 11-848): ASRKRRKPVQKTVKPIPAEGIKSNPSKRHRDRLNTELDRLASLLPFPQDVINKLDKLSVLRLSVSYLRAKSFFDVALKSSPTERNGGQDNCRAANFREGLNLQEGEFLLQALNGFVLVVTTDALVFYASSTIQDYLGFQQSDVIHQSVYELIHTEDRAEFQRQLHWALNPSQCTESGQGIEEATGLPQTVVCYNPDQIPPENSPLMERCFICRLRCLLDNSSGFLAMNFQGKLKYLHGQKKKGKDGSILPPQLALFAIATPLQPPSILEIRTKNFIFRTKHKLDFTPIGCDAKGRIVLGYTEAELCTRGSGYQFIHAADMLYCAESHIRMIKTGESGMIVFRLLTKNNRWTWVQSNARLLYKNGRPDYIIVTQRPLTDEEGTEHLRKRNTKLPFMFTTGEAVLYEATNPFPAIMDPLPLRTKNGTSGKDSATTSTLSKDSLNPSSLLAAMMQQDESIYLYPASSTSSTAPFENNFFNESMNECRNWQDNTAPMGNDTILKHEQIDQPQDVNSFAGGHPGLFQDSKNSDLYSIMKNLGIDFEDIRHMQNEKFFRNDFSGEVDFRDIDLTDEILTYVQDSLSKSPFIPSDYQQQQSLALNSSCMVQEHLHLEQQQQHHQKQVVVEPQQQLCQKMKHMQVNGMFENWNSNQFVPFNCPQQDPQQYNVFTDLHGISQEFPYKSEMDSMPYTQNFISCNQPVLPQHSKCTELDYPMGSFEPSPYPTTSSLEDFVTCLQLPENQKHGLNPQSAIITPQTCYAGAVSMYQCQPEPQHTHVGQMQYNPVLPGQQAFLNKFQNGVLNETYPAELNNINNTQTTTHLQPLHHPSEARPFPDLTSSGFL
In words: Transactivation assay in human cell line (in vitro assay 1): antagonism. It counts as cell-based. The note with it: U87 glioblastoma cells, AHR inducible firefly luciferase reporter (DRE), 150 μM kynurenic acid, 20 hours. Here is the method: Examples were tested in selected biological assays one or more times. When tested more than once, data are reported as either average values or as median values, wherein • the average value, also referred to as the arithmetic mean value, represents the sum of the values obtained divided by the number of times tested, and • the median value represents the middle number of the group of values when ranked in ascending or descending order. If the number of values in the data set is odd, the median is the middle value. If the number of values in the data set is even, the median is the arithmetic mean of the two middle values.
Transactivation Assay in Human Cell Line (In Vitro Assay 1)
Transactivation assay was carried out in U87 glioblastoma cells (ATCC) endogenously expressing AHR. In addition the cells were stably transfected with an AHR inducible firefly luciferase reporter gene construct that carried AHR-binding sites (DRE) in its promoter and a renilla reporter gene construct with constitutively active promoter. Kynurenic acid is an endogenous AHR activating ligand and was used to prestimulate test cells prior to testing the antagonistic properties of compounds.
In Vitro Assay 1: Antagonism in Human Cell Line
Firefly luciferase and Renilla activity was determined by the DualGlo Luciferase Assay System (Promega, #2920). Renilla activity was used to assess toxic effects of compounds.
In general, IC50 refers to the concentration at which inhibition is half-maximal. `CC(C)(O)CNC(=O)c1cc(-c2ccc(Cl)cc2)nc(-c2cccc(F)c2)n1` [Example 1, 6-(4-Chlorophenyl)-2-(3-fluorophenyl)-N-(2-hydroxy-2-methylpropyl)pyrimidine-4-carboxamide] gave an IC50 above 20000 nM. `CC(C)(O)CNC(=O)c1cc(-c2ccc(OC(F)(F)F)cc2)nc(-c2ccc(F)cc2)n1` [Example 13, 2-(4-fluorophenyl)-N-(2-hydroxy-2-methylpropyl)-6-[4-(trifluoromethoxy)phenyl]pyrimidine-4-carboxamide]: the IC50 came out at 26 nM. In turn, `CC(C)(O)CNC(=O)c1cc(-c2ccc(OC(F)(F)F)cc2)nc(-c2ccc(C(F)F)cc2)n1` [Example 25, 2-[4-(difluoromethyl)phenyl]-N-(2-hydroxy-2-methylpropyl)-6-[4-(trifluoromethoxy)phenyl]pyrimidine-4-carboxamide] gave an IC50 above 20000 nM. For `CC(C)(O)CNC(=O)c1cc(-c2ccc(OC(F)(F)F)cc2)nc(-c2cc(F)cc(C#N)c2)n1` [Example 26, 2-(3-cyano-5-fluorophenyl)-N-(2-hydroxy-2-methylpropyl)-6-[4-(trifluoromethoxy)phenyl]pyrimidine-4-carboxamide] the value was 40.2 nM. For `COc1ccc(-c2nc(C(=O)N[C@@H](C)CO)cc(-c3ccc(OC(F)(F)F)cc3)n2)cc1` [Example 30, N-[(2S)-1-hydroxypropan-2-yl]-2-(4-methoxyphenyl)-6-[4-(trifluoromethoxy)phenyl]pyrimidine-4-carboxamide] the value was 730 nM; for `C[C@@H](CO)NC(=O)c1cc(-c2ccc(OC(F)(F)F)cc2)nc(-c2cc(Cl)cc(Cl)c2)n1` [Example 34, 2-(3,5-dichlorophenyl)-N-[(2S)-1-hydroxypropan-2-yl]-6-[4-(trifluoromethoxy)phenyl]pyrimidine-4-carboxamide], 170 nM; for `C[C@@H](CO)NC(=O)c1cc(-c2ccc(OC(F)(F)F)cc2)nc(-c2ccc(F)c(C#N)c2)n1` [Example 35, 2-(3-cyano-4-fluorophenyl)-N-[(2S)-1-hydroxypropan-2-yl]-6-[4-(trifluoromethoxy)phenyl]pyrimidine-4-carboxamide], 78.3 nM. For `C[C@@H](CO)NC(=O)c1cc(-c2ccc(OC(F)(F)F)cc2)nc(-c2ccc(Cl)c(Cl)c2)n1` [Example 38, 2-(3,4-dichlorophenyl)-N-[(2S)-1-hydroxypropan-2-yl]-6-[4-(trifluoromethoxy)phenyl]pyrimidine-4-carboxamide] the value was 4350 nM; for `C[C@@H](CO)NC(=O)c1cc(-c2ccc(OC(F)(F)F)cc2)nc(-c2cc(F)cc(C#N)c2)n1` [Example 43, 2-(3-cyano-5-fluorophenyl)-N-[(2S)-1-hydroxypropan-2-yl]-6-[4-(trifluoromethoxy)phenyl]pyrimidine-4-carboxamide], 21.5 nM; for `CC(C)(O)CNC(=O)c1cc(-c2ccc(Cl)cc2)nc(-c2ccc(Br)cc2)n1` [Example 44, 2-(4-bromophenyl)-6-(4-chlorophenyl)-N-(2-hydroxy-2-methylpropyl)pyrimidine-4-carboxamide], above 20000 nM. With `CC(C)(O)CNC(=O)c1cc(-c2ccc(Cl)cc2)nc(-c2ccc(Cl)cc2)n1` [Example 46, 2,6-bis(4-chlorophenyl)-N-(2-hydroxy-2-methylpropyl)pyrimidine-4-carboxamide], the half-maximal inhibitory concentration (IC50) was 9790 nM.

For the molecule `COc1ccc(-c2nc(C(=O)NCC(C)(C)O)cc(-c3ccc(Cl)cc3)n2)cc1` [Example 47, 6-(4-chlorophenyl)-N-(2-hydroxy-2-methylpropyl)-2-(4-methoxyphenyl)pyrimidine-4-carboxamide], the IC50 is 2220 nM. For `CC(C)(O)CNC(=O)c1cc(-c2ccc(Cl)cc2)nc(-c2ccc(F)c(C#N)c2)n1` [Example 52, 6-(4-chlorophenyl)-2-(3-cyano-4-fluorophenyl)-N-(2-hydroxy-2-methylpropyl)pyrimidine-4-carboxamide] the value was 112 nM.
